Converted amounts (≈) assume the structure as drawn.
Legend:
[1] = test system: HRV 14; assay: Cytopathic effect (CPE) inhibition assay; type: cell-based, human rhinovirus; conditions: Human rhinovirus sp., HeLa, 72 h, host cell HeLa, 3 days, MEM/2% FBS, MTT assay; read-out: EC50 HRV 14
[2] = test system: HRV 21; assay: Cytopathic effect (CPE) inhibition assay; type: cell-based, human rhinovirus; conditions: Human rhinovirus sp., 72 h; host cell HeLa, 3 days, MEM/2% FBS, MTT assay; read-out: EC50 HRV 21
[3] = test system: HRV 71; assay: Cytopathic effect (CPE) inhibition assay; type: cell-based, human rhinovirus; conditions: Human rhinovirus sp., 72 h; host cell HeLa, 3 days, MEM/2% FBS, MTT assay; read-out: EC50 HRV 71
[4] = test system: coxsackievirus B1 (Cox B1); assay: Multicycle cytopathic effect (CPE) reduction assay; type: cell-based; conditions: Enterovirus B, B1, 72 h, read-out: EC50 CoxB1
[5] = test system: coxsackievirus B3 (Cox B3); assay: Multicycle cytopathic effect (CPE) reduction assay; type: cell-based; conditions: Enterovirus B, B3, 72 h, read-out: EC50 CoxB3
[6] = test system: poliovirus 3 (PV3); assay: microbe, parasite or virus in culture; type: cell-based; conditions: Enterovirus C, 72 h, read-out: EC50 PV3
[7] = in vitro; conditions: human
[8] = Cytotoxicity (CC50) in multicycle CPE reduction assay, MTS; conditions: human

| SMILES | EC50 [1] [µg/mL] | EC50 [2] [µg/mL] | EC50 [3] [µg/mL] | EC50 [4] [µg/mL] | EC50 [5] [µg/mL] | EC50 [6] [µg/mL] | CC50 [7] [µg/mL] | CC50 at 3 days [8] [µg/mL] |
| --- | --- | --- | --- | --- | --- | --- | --- | --- |
| Cc1cccc(C)c1NC(=O)C(=O)NC12C(=O)c3ccccc3C1(O)Oc1cc(C(C)C)ccc12 (centres unmarked) [Example 20, N1-(2,6-dimethylphenyl)-N2-(4b-hydroxy-7-isopropyl-10-oxo-4b, 10-dihydro-9bH-indeno[1,2-b]benzofuran-9b-yl)oxal amide] | < 10 | > 10 | > 10 | < 0.1 | < 0.1 | < 10 | > 10 | > 10 |
| CCOC(=O)C(=O)NC12C(=O)c3cccc([N+](=O)[O-])c3C1(O)Oc1cc(C(C)C)ccc12 (centres unmarked) [Example 33, Ethyl 2-((4b-hydroxy-7-isopropyl-4-nitro-10-oxo-4b, 10-dihydro-9bH-indeno[1,2-b]benzofuran-9b-yl)amino)-2-oxo acetate] | > 10 | > 10 | > 10 | < 10 | < 10 | > 10 | > 10 | > 10 |
| CC(=O)C(=O)NC12C(=O)c3c(N)cccc3C1(O)Oc1cc(C(C)C)ccc12 (centres unmarked) [Example 22, N-(1-amino-4b-hydroxy-7-isopropyl-10-oxo-4b, 10-dihydro-9bH-indeno[1,2-b]benzofuran-9b-yl)-2-oxo propanamide] | < 0.01 | < 10 | 8.5 (≈ 22.3 µM) | < 0.01 | < 0.01 | < 0.1 | > 10 | > 10 |
| CCC(C)C(=O)C(=O)NC12C(=O)c3ccccc3C1(O)Oc1cc(C(C)C)ccc12 (centres unmarked) [Example 29, N-(4b-hydroxy-7-isopryl-10-oxo-4b, 10-dihydro-9bH-indeno[1,2-b]benzofuran-9b-yl)-3-methyl-2-oxo pentanamide] | < 1 | > 10 | > 10 | < 0.1 | < 0.1 | < 1 | > 10 | > 10 |
| CC(C)c1ccc2c(c1)OC1(O)c3cccc(N)c3C(=O)C21NC(=O)C(=O)c1c[nH]c2ccccc12 (centres unmarked) [Example 10, N-(1-amino-4b-hydroxy-7-isopropyl-10-oxo-9b, 10-dihydro-4bH-indeno[1,2-b]benzofuran-9b-yl)-2-(1H-indo1-3-yl)-2-oxo acetamide] | < 0.1 | > 4.89 | > 4.89 | < 0.01 | 0.014 (≈ 0.0291 µM) | < 0.1 | 4.89 (≈ 10.2 µM) | 8.33 (≈ 17.3 µM) |
| CCOC(=O)C(=O)NC12C(=O)c3ccccc3C1(O)Oc1cc(C(C)C)ccc12 (centres unmarked) [Example 32, Ethyl 2-((4b-hydroxy-7-isopropyl-10-oxo-4b, 10-dihydro-9bH-indeno[1,2-b]benzofuran-9b-yl)amino)-2-oxo acetate] | < 1 | > 10 | > 10 | < 0.1 | < 1 | < 10 | > 10 | > 10 |
| CC(C)c1ccc2c(c1)OC1(O)c3ccccc3C(=O)C21NC(=O)C(=O)c1ccco1 (centres unmarked) [Example 7, 2-(furan-2-yl)-N-(4b-hydroxy-7-isopropyl-10-oxo-9b, 10-dihydro-4bH-indeno[1,2-b]benzofuran-9b-yl)-2-oxo acetamide] | < 0.1 | > 10 | > 10 | < 0.01 | < 0.01 | < 1 | > 10 | > 10 |
| CC(=O)C(=O)NC12C(=O)c3cccc([N+](=O)[O-])c3C1(O)Oc1cc(C(C)C)ccc12 (centres unmarked) [Example 19, N-(4b-hydroxy-7-isopropyl-4-nitro-10-oxo-4b, 10-dihydro-9bH-indeno[1,2-b]benzofuran-9b-yl)-2-oxo propanamide] | < 10 | > 10 | > 10 | < 1 | < 1 | < 10 | > 10 | > 10 |
| CC(C)c1ccc2c(c1)OC1(O)c3ccccc3C(=O)C21NC(=O)C(=O)CCc1ccccc1 (centres unmarked) [Example 39, N-(4b-hydroxy-7-isopropyl-10-oxo-4b, 10-dihydro-9bH-indeno[1,2-b]benzofuran-9b-yl)-2-oxo-4-phenyl butanamide] | < 10 | > 9.5 | > 9.5 | < 0.1 | < 0.1 | < 10 | 9.5 (≈ 20.9 µM) | > 10 |
| CCCCCCC(=O)C(=O)NC12C(=O)c3ccccc3C1(O)Oc1cc(C(C)C)ccc12 (centres unmarked) [Example 6, N-(4b-hydroxy-7-isopropyl-10-oxo-9b, 10-dihydro-4bH-indeno[1,2-b]benzofuran-9b-yl)-2-oxo octanamide] | < 1 | > 8.57 | > 8.57 | 0.013 (≈ 0.0298 µM) | 0.015 (≈ 0.0344 µM) | 1.23 (≈ 2.82 µM) | 8.57 (≈ 19.7 µM) | 8.57 (≈ 19.7 µM) |
| CCCC(=O)C(=O)NC12C(=O)c3cccc([N+](=O)[O-])c3C1(O)Oc1cc(C(C)C)ccc12 (centres unmarked) [Example 34, N-(4b-hydroxy-7-isopropyl-4-nitro-10-oxo-4b, 10-dihydro-9bH-indeno[1,2-b]benzofuran-9b-yl)-2-oxo pentanamide] | < 10 | > 10 | > 10 | < 1 | < 10 | < 10 | > 10 | > 10 |
| CSCCC(=O)C(=O)NC12C(=O)c3ccccc3C1(O)Oc1cc(C(C)C)ccc12 (centres unmarked) [Example 17, N-(4b-hydroxy-7-isopropyl-10-oxo-9b, 10-dihydro-4bH-indeno[1,2-b]benzofuran-9b-yl)-4-(methylthio)-2-oxo butanamide] | 6.99 (≈ 16.4 µM) | > 10 | > 10 | 0.033 (≈ 0.0776 µM) | 0.067 (≈ 0.157 µM) | 2.61 (≈ 6.13 µM) | > 10 | > 10 |
| CC(C)c1ccc2c(c1)OC1(O)c3ccccc3C(=O)C21OC(=O)NCCNC(=O)OC(C)(C)C (centres unmarked) [Example 56, Tert-butyl (4b-hydroxy-7-isopropyl-10-oxo-4b, 10-dihydro-9bH-indeno[1,2-b]benzofuran-9b-yl)ethan-1,2-diyl dicarbamate] | > 10 | > 10 | > 10 | < 10 | < 10 | > 10 | > 10 | > 10 |
| CCCC(=O)C(=O)NC12C(=O)c3ccccc3C1(O)Oc1cc(C(C)C)ccc12 (centres unmarked) [Example 5, N-(4b-hydroxy-7-isopropyl-10-oxo-9b, 10-dihydro-4bH-indeno[1,2-b]benzofuran-9b-yl)-2-oxo pentanamide] | < 0.1 | > 8.49 | > 8.49 | < 0.01 | < 0.01 | < 0.1 | 8.49 (≈ 21.6 µM) | > 10 |
| Cc1cc(C)c(C(=O)C(=O)NC23C(=O)c4c(N)cccc4C2(O)Oc2cc(C(C)C)ccc23)c(C)c1 (centres unmarked) [Example 54, N-(1-amino-4b-hydroxy-7-isopropyl-10-oxo-4b, 10-dihydro-9bH-indeno[1,2-b]benzofuran-9b-yl)-2-mesityl-2-oxo acetamide] | < 1 | > 8.6 | > 8.6 | < 0.1 | < 0.1 | < 10 | 8.6 (≈ 17.7 µM) | > 10 |
| CC(C)c1ccc2c(c1)OC1(O)c3ccccc3C(=O)C21NC(=O)C(=O)N(C)C (centres unmarked) [Example 21, N1-(4b-hydroxy-7-isopropyl-10-oxo-4b, 10-dihydro-9bH-indeno[1,2-b]benzofuran-9b-yl)-N2, N2-dimethyl oxal amide] | < 1 | > 10 | > 10 | < 0.1 | < 0.1 | < 10 | > 10 | > 10 |
| CC(C)c1ccc2c(c1)OC1(O)c3ccccc3C(=O)C21NC(=O)CNC(=O)OC(C)(C)C (centres unmarked) [Example 63, tert-butyl (2-((4b-hydroxy-7-isopropyl-10-oxo-4b, 10-dihydro-9bH-indeno[1,2-b]benzofuran-9b-yl)amino)-2-oxoethyl)carbamate] | < 1 | > 10 | > 10 | < 0.1 | < 0.1 | < 10 | > 10 | > 10 |
| CC(C)c1ccc2c(c1)OC1(O)c3ccccc3C(=O)C21N/C(=N\C(=O)OC(C)(C)C)NC(=O)OC(C)(C)C (centres unmarked) [Example 55] | < 10 | > 10 | > 10 | < 1 | < 1 | > 10 | > 10 | > 10 |
| CC(C)c1ccc2c(c1)OC1(O)c3c(cccc3[N+](=O)[O-])C(=O)C21NC(=O)C(=O)CCc1ccccc1 (centres unmarked) [Example 53, N-(4b-hydroxy-7-isopropyl-4-nitro-10-oxo-4b, 10-dihydro-9bH-indeno[1,2-b]benzofuran-9b-yl)-2-oxo-4-phenyl butanamide] | > 4.8 | > 4.8 | > 4.8 | < 10 | < 10 | > 10 | 4.8 (≈ 9.59 µM) | > 10 |

From patent publication US9951058B2, “Compound, pharmaceutically acceptable salt or optical isomer thereof, method for preparing the same, and pharmaceutical composition for prevention or treatment of viral diseases containing same as active ingredient” (Korea Research Institute of Chemical Technology, priority 2012, dated 2018)
